Measurements as given in patent US6221867A, “4,5-pyrazinoxindoles” (Hoffmann-La Roche Inc., priority 1999, dated 2001).

Molecular target: rat SAPK (isoform β) (Rattus norvegicus, UniProt P49187)
Test: SAPK FlashPlate Assay (inhibition of cJun phosphorylation)
Type: biochemical
Conditions: for SAPK % Inhibition: at test concentration 0.5 μM, GST-cJun substrate, 33P-ATP
Experimental: "IC50 " refers to the concentration of a particular 4,5-pyrazinoxindole required to inhibit 50% of cJun phosphorylation, which is a measure of inhibition of SAPK activity. IC50 can be measured, inter alia, using the assay described herein in Example 7, infra.
Human JNK is highly homologous to rat SAPK. To measure the inhibitory activity of test compounds, the compounds were tested in the rat SAPK assay. For the SAPK assay, purified GST-cJun (a chimeric protein containing cJun, a natural substrate of JNK) was coated on 96 well FlashPlates (New England Nuclear, Boston, Mass.). Purified rat SAPK (isoform β, Kyriakis et al. supra) was preincubated with preparations containing MEKK-1 and MKK4 for 30 minutes at 37° C. in assay buffer containing 25 mM HEPES, pH 7.5, 150 mM NaCl, 20 mM MgCl2, 2 mM DTT, 0.001% Tween 20, 1 μM ATP freshly added. In the preincubation step, MEKK-1 phosphorylates and activates MKK-4, which in turn phosphorylates and activates SAPK. The activated SAPK was then added to the cJun coated FlashPlates along with ^33 P-ATP (0.32 μCi per reaction) and test compounds. The plates were incubated for 30 minutes at 37° C., then washed with PBS, 0.01% Tween 20, and counted in the Topcount scintillation counter (Packard Instrument Co., Downers Grove, Ill.). Dilutions of compounds were tested in duplicate in each assay. The percent inhibition of cJun phosphorylation (a measure of inhibition of SAPK activity) was determined by the following formula: [formula]
where "test compound" refers to the average counts per minute of the test duplicates, "nonspecific" refers to the average counts per minute when no SAPK was added, and "total" refers to the average counts per minute when no compound was added.

Chain of rat SAPK (isoform β) (P49187 whole entry, canonical isoform): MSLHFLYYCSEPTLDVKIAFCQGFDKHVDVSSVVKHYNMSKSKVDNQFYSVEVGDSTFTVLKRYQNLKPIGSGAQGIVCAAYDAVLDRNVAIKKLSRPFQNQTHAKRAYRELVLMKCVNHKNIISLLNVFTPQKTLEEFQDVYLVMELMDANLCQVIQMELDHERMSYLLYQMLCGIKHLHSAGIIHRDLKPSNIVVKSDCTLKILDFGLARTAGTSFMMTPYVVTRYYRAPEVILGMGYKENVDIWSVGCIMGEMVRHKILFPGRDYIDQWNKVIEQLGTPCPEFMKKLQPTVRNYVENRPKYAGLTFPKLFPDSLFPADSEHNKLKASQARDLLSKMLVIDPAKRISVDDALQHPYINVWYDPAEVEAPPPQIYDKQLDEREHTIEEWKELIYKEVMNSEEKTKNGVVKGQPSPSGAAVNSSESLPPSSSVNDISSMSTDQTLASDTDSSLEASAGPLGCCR

SAPK % Inhibition [%] | Compound | inhibition at 0.1 µM (read-out: SAPK % Inhibition) [%] | other results
 | COc1cc[nH]c1/C=C1\C(=O)Nc2ccc3nc(C)c(C)nc3c21 [A, (Z)-7,9-Dihydro-2,3-dimethyl-9-[(3-methoxy-1H-pyrrol-2-yl)methylene]-8H-pyrrolo-[3,2-f]quinoxalin-8-one] | ≥ 50 | 
 | COc1cc[nH]c1/C=C1\C(=O)Nc2ccc3nc(-c4ccco4)c(-c4ccco4)nc3c21 [D, (Z)-7,9-Dihydro-2,3-di-(2-furanyl)-9-[(3-methoxy-1H-pyrrol-2-yl)methylene]-8H-pyrrolo[3,2-f]quinoxalin-8-one] |  | inhibition at 0.5 µM (read-out: SAPK % Inhibition): ≥ 50%
 | COc1cc[nH]c1/C=C1\C(=O)Nc2ccc3nc4c(nc3c21)CCCC4 [E, (Z)-1,3,5,6,7,8-Hexahydro-3-[(3-methoxy-1H-pyrrol-2-yl)methylene]-2H-pyrrolo[3,2-a]phenazin-2-one] | ≥ 50 | 
≥ 50 | (Z)-7,9-Dihydro-9-[(3-methoxy-1H-pyrrol-2-yl)methylene]-2-methyl-3-phenyl-8H-pyrrolo[3,2-f]quinoxalin-8-one and (Z)-7,9-dihydro-9-[(3-methoxy-1H-pyrrol-2-yl)methylene]-3-methyl-2-phenyl- 8H-pyrrolo[3,2-f]quinoxalin-8-one [C] |  | 
≥ 50 | Mixture of (Z)-3-butyl-7,9-dihydro-9-[(3-methoxy-1H-pyrrol-2-yl)methylene]-2-methyl-8H-pyrrolo[3,2-f]quinoxalin-8-one and (Z)-2-butyl-7,9-dihydro-9-[(3-methoxy-1H-pyrrol-2-yl)methylene]-3-methyl-8H-pyrrolo[3,2-f]quinoxalin-8-one |  | 
